“And” between values parts separate entries of the source, which are not always exact repeats. Equal values may be shown once. “Also recorded” adds a separate entry of the source.
Tests used:
[1] = test system: HT-29 human colorectal cancer cell derived xenografts (CDX); experiment: Efficacy in HT-29 CDX model of colorectal cancer; format: in vivo, BALB/c nude mice
Excerpt: The endpoint for each individual mouse was reached when the mouse weight decreased by 20%.

[2] = test system: A375 cells; experiment: A375 cell growth inhibition; format: cell-based; conditions: Homo sapiens, A-375, 96 hr
[3] = Dry grinding simulation experiments; format: physicochemical
Experimental: About 20 mg of Compound 1 Form B was ground manually with a mortar and a pestle for 1, 2 and 5 min. Potential form change, and degree of crystallinity were evaluated by XRPD.

[4] = Stability study for Compound 1 Form B (storage conditions); format: physicochemical
[5] = Bulk stability of Compound 1 Form B (1 week stress); format: physicochemical; conditions: for Bulk (XRPD) crystallinity / Bulk (XRPD) form / Color / Purity, Bulk (HPLC): Solid state
Experimental: Compound 1 Form B was placed at 25° C./92% RH in an open container, at 40° C./75% RH in an open container and at 60RC in a closed container for 1 week. Samples after the stress were characterized by XRPD and HPLC and inspected for color change.

[6] = Salt screening by slurry equilibration; format: physicochemical
Experimental: About 30 mg of Compound 1 Form A and 0.5 or 1 equivalent of base were added into a solvent in a 2 mL glass vial. […] Obtained mixtures were stirred at 25° C. for at least 48 hours.
Obtained suspensions were filtered through a 0.45 μm nylon membrane filter by centrifugation at 14,000 rpm. After being dried at 25° C. under vacuum for 2 h, solid parts were analyzed by XRPD.

[7] = Crystallization by addition of anti-solvent; format: physicochemical
Experimental: About 50 mg of Compound 1 Form A was dissolved in the minimal amount of selected good solvents at ambient temperature (about 20-25° C.). Obtained solutions were filtered through a 0.45 μm syringe membrane filter. […] Precipitates were collected by centrifugation filtration through a 0.45 μm nylon membrane filter at 14,000 rpm. Solid parts (wet cakes) were investigated by XRPD.

[8] = Crystallization at room temperature by slow evaporation; format: physicochemical
Experimental: About 30 mg of Compound 1 Form A was dissolved in 0.2-10 mL of solvents. Obtained solutions were filtered through a 0.45 μm syringe membrane filter. […] Solid residues were investigated by XRPD.

[9] = 25° C. ± 2° C./60% RH ± 5% RH, 3 M
[10] = 25° C. ± 2° C./60% RH ± 5% RH, 6 M
[11] = 40° C. ± 2° C./75% RH ± 5% RH, 3 M
[12] = 40° C. ± 2° C./75% RH ± 5% RH, 6 M
[13] = 25° C./92% RH, open container, 1 week
[14] = 40° C./75% RH, open container, 1 week
[15] = 60° C., tight container, 1 week
[16] = Acetone (3) / anti-solvent Heptane (2) mL

CCN(C)S(=O)(=O)Nc1ccc(F)c(Oc2ccc3ncn([C@H]4COC5(CCN(C(=O)CC6(O)CCN(c7cc8c(cc7F)c(N7CCC(=O)NC7=O)nn8C)CC6)CC5)C4)c(=O)c3c2)c1C#N [Compound 1, (3R)-3-[6-[2-cyano-3-[[ethyl(methyl)sulfamoyl]amino]-6-fluorophenoxy]-4-oxoquinazolin-3-yl]-8-[2-[1-[3-(2,4-dioxo-1,3-diazinan-1-yl)-5-fluoro-1-methylindazol-6-yl]-4-hydroxypiperidin-4-yl]acetyl]-1-oxa-8-azaspiro[4.5]decane]
Tumor response at end of study ([1]; 10 mg/kg PO BID plus cetuximab 11 mg/kg IP Q3D): tumor regression | Tumor response at end of study ([1]; 10 mg/kg PO BID, without cetuximab): tumor regression | GI50 [2]: 0.094 µM

CCN(C)S(=O)(=O)Nc1ccc(F)c(Oc2ccc3ncn([C@H]4COC5(CCN(C(=O)CC6(O)CCN(c7cc8c(cc7F)c(N7CCC(=O)NC7=O)nn8C)CC6)CC5)C4)c(=O)c3c2)c1C#N [Compound 1 Form B]
Morphic form stability under dry grinding [3]: excellent morphic form stability | Comments ([3]; grinding time 1 min): Slight decrease in crystallinity. | XRPD ([3]; grinding time 1 min): Form B | Comments ([3]; grinding time 2 min): Slight decrease in crystallinity. | XRPD ([3]; grinding time 2 min): Form B | Comments ([3]; grinding time 5 min): Slight decrease in crystallinity. | XRPD ([3]; grinding time 5 min): Form B | Appearance ([4]; 5 ± 3° C., 6 M): white solid | Assay by UPLC (% w/w) ([4]; 5 ± 3° C., 6 M): 97.7% w/w | Chiral purity by HPLC (% area) ([4]; 5 ± 3° C., 6 M): 99.9% area | Purity by UPLC (% area) ([4]; 5 ± 3° C., 6 M): 99.0% area | Related Substances, UPLC (% area), Total Impurities ([4]; 5 ± 3° C., 6 M): 1.0% area | Water Content by KF (% w/w) ([4]; 5 ± 3° C., 6 M): 1.2% w/w | XRPD ([4]; 5 ± 3° C., 6 M): Form B | Water content trend ([4]; 5±3° C., 25° C./60% RH, 40° C./75% RH): increasing trend | Stability study outcome (appearance, purity, assay, related substance, chiral purity, water content, XRPD) ([4]; 6M, 5±3° C., 25° C./60% RH, 40° C./75% RH): meet the acceptance criteria | Assay by UPLC (% w/w) [4, 9]: 97.2% w/w | Chiral purity by HPLC (% area) [4, 9]: 99.9% area | Purity by UPLC (% area) [4, 9]: 98.9 % area | Related Substances, UPLC (% area), Total Impurities [4, 9]: 1.1% area | Water Content by KF (% w/w) [4, 9]: 0.7% w/w | XRPD [4, 9]: Form B | Assay by UPLC (% w/w) [4, 10]: 97.8% w/w | Chiral purity by HPLC (% area) [4, 10]: 99.9% area | Purity by UPLC (% area) [4, 10]: 99.1 % area | Related Substances, UPLC (% area), Total Impurities [4, 10]: 0.90% area | Water Content by KF (% w/w) [4, 10]: 0.9% w/w | XRPD [4, 10]: Form B | Assay by UPLC (% w/w) [4, 11]: 92.2% w/w | Chiral purity by HPLC (% area) [4, 11]: 99.9% area | Purity by UPLC (% area) [4, 11]: 92.2% area | Related Substances, UPLC (% area), Total Impurities [4, 11]: 1.2% area | Water Content by KF (% w/w) [4, 11]: 0.9 % w/w | XRPD [4, 11]: Form B | Assay by UPLC (% w/w) [4, 12]: 92.5% w/w | Chiral purity by HPLC (% area) [4, 12]: 99.9% area | Purity by UPLC (% area) [4, 12]: 92.5% area | Related Substances, UPLC (% area), Total Impurities [4, 12]: 1.1% area | Water Content by KF (% w/w) [4, 12]: 1.0 % w/w | XRPD [4, 12]: Form B | Appearance ([4]; Initial): white solid | Assay by UPLC (% w/w) ([4]; Initial): 99.4% w/w and 97.3% w/w | Chiral purity by HPLC (% area) ([4]; Initial): 99.8% area | Purity by UPLC (% area) ([4]; Initial): 98.9% area and 97.3% area | Related Substances, UPLC (% area), Total Impurities ([4]; Initial): 1.1% area | Water Content by KF (% w/w) ([4]; Initial): 0.4% w/w | XRPD ([4]; Initial): Form B | Bulk (XRPD) crystallinity [5, 13]: No change in crystallinity | Bulk (XRPD) form [5, 13]: Form B | Color [5, 13]: No change of color | Purity, Bulk (HPLC) [5, 13]: 99.2% | Bulk (XRPD) crystallinity [5, 14]: No change in crystallinity | Bulk (XRPD) form [5, 14]: Form B | Color [5, 14]: No change of color | Purity, Bulk (HPLC) [5, 14]: 99.3% | Bulk (XRPD) crystallinity [5, 15]: No change in crystallinity | Bulk (XRPD) form [5, 15]: Form B | Color [5, 15]: No change of color | Purity, Bulk (HPLC) [5, 15]: 99.3% | Bulk (XRPD) form ([5]; photo (visible light, 1.2 million lux-hrs)): Form B | Bulk stability (purity, crystal form, crystallinity) ([5]; one week, 25° C./92% RH open, 40° C./75% RH open, 60° C. tight container): excellent chemical and physical stability without any changes in purity, crystal form and crystallinity; also recorded: excellent chemical and physical stability without any changes in purity, crystal form and/or crystallinity

CCN(C)S(=O)(=O)Nc1ccc(F)c(Oc2ccc3ncn([C@H]4COC5(CCN(C(=O)CC6(O)CCN(c7cc8c(cc7F)c(N7CCC(=O)NC7=O)nn8C)CC6)CC5)C4)c(=O)c3c2)c1C#N [Compound 1 Form A]
Slurry equilibration result (XRPD) ([6]; Ca(OH)2 (0.5 equiv.), Acetone, 5% water): Sticky material | Slurry equilibration result (XRPD) ([6]; Ca(OH)2 (0.5 equiv.), Acetonitrile, 5% water): Sticky material | Slurry equilibration result (XRPD) ([6]; Choline (1 equiv.), Acetone): Sticky material | Slurry equilibration result (XRPD) ([6]; Choline (1 equiv.), Acetonitrile): Sticky material | Slurry equilibration result (XRPD) ([6]; Choline (1 equiv.), Methanol): Clear solution | Slurry equilibration result (XRPD) ([6]; Erbumine (1 equiv.), Methanol): Few solids | Slurry equilibration result (XRPD) ([6]; Free form only, Acetone): Form B | Slurry equilibration result (XRPD) ([6]; Free form only, Acetonitrile): Form B | Slurry equilibration result (XRPD) ([6]; Methylglucamine (1 equiv.), Methanol): Sticky material | Slurry equilibration result (XRPD) ([6]; Mg(OH)2 (0.5 equiv.), Acetone, 5% water): Few solids | Slurry equilibration result (XRPD) ([6]; Mg(OH)2 (0.5 equiv.), Acetonitrile, 5% water): Form B | Slurry equilibration result (XRPD) ([6]; NH3 (1 equiv.), Acetone): Hazy suspension | Slurry equilibration result (XRPD) ([6]; NH3 (1 equiv.), Acetonitrile): Form I* | Slurry equilibration result (XRPD) ([6]; TRIS (1 equiv.), Methanol): Few solids | Results (After 2 hours) ([7]; 1,4-Dioxane (0.1) / anti-solvent Water (0.2) mL): Sticky material | Results (After 2 hours) [7, 16]: Low crystallinity | XRPD [7, 16]: Form A | Results (After 2 hours) ([7]; DCM (0.2) / anti-solvent Heptane (0.2) mL): Sticky material | Results (After 2 hours) ([7]; THF (0.2) / anti-solvent Water (0.2) mL): Oil material | Comments ([8]; 1,4-Dioxane): Glassy material | Comments ([8]; Acetone): Glassy material | XRPD ([8]; Acetonitrile): Amorphous form | XRPD ([8]; DCM): Almost amorphous form | XRPD ([8]; DCM/methanol (v:v = 1:1)): Almost amorphous form | XRPD ([8]; Ethyl acetate): Amorphous form | XRPD ([8]; Methanol): Almost amorphous form | Comments ([8]; Methyl ethyl ketone): Glassy material | Comments ([8]; THF): Glassy material

Reference: US20250289827A1, “MORPHIC FORMS OF A MUTANT BRAF DEGRADER AND METHODS OF MANUFACTURE THEREOF” (C4 THERAPEUTICS, INC., priority 2022, published 2025)
